The values below are quoted from earlier work in US7799530B2, “Genetic polymorphisms associated with cardiovascular disorders and drug response, methods of detection and uses thereof” (Celera Corporation, priority 2005, dated 2010).

Data set [1] concerns rhabdomyolysis. The following applies: in vivo; cited from earlier work.
The subject of data set [2] is acute coronary events and LDL-C in subjects with average cholesterol levels. The following applies: AFCAPS/TexCAPS; cited from earlier work.

As to `COCc1c(C(C)C)nc(C(C)C)c(/C=C/[C@@H](O)C[C@@H](O)CC(=O)O)c1-c1ccc(F)cc1` [cerevastatin], in data set [1], the rhabdomyolysis-related deaths result was “relatively high level of rhabdomyolysis-related deaths”.

For the compound `CC[C@H](C)C(=O)O[C@H]1C[C@@H](C)C=C2C=C[C@H](C)[C@H](CC[C@@H]3C[C@@H](O)CC(=O)O3)[C@H]21` [lovastatin], in data set [2], the “LDL-C reduction (average)” value is given as 25% and the decrease in events is given as 37%.
